≈ marks a conversion by molar mass, not a printed value.
Key:
KB cells = experiment: In vitro KB cell cytotoxicity assay (crystal violet); assay type: cell-based; conditions: Homo sapiens, 72 h, 3 days culture, read-out: KB Cell Cytotoxicity TD50
Procedure: In Vitro KB Cell Cytotoxicity Assay In vitro KB cell cytoxocity assay was done by modification of the crystal violet assay ([…] et al., Anal Biochem., 159, 109-113 (1986). KB cells were cultivated in Eagles minimum essential medium supplemented with 10% calf serum and incubated at 37° C. in a humidified 5% CO2 atmosphere to prepare a cell stock. Cells were counted using a neubauer hemocytometer and seeded in 96 well plates at 100 μl of 3×10^4 cells/ml and cultured for one day. […] Control wells were identical except that test compound was absent. These were cultured for three days. Then the cells were fixed with addition of 20 μl of 25% glutaraldehyde for 15 minutes, washed with water and dried. Then stained with 100 μl of 0.05% crystal violet for 15 minutes, washed with water and dried. The wells are eluted with […] of 0.05M NaH2 PO4 /ethanol (1:1 v/v) and read at OD540 on a multiscan spectrophotometer. Inhibition value of cell growth was calculated based on optical density using the following equation; [formula] TD50 values were calculated from linear regression ines of the log-logit plot.

Sarcoma 180 = experiment: In vivo antitumor activity against Sarcoma 180; set-up: species or system male ICR mice; conditions: i.p., days 1, 5 and 9
Procedure: In Vivo Antitumor Activity Against Sarcoma 180
The compounds of general formula (I) were tested in vivo against Sarcoma 180 xenografted tumor to mice as illustrated herein after.
Sarcoma 180, 5×10^6 cells were inoculated by S.C. to male ICR mice (6 week old) on day 0. Drugs were administered on days 1, 5 and 9. Mice were killed and tumor weight was measured on day 12 after transplantation. The percentage inhibition of tumor growth was calculated from the mean tumor weight of the treated group compared with that of the control group. Number of mice used in each group was between 6 to 7.

[1] = Mus musculus, Sarcoma-180, ip, 288 h, 12.5 mg/kg/day, tumor s.c., tumor weight day 12, read-out: % Inhibition of tumor growth
[2] = Mus musculus, Sarcoma-180, ip, 288 h, 25 mg/kg/day, tumor s.c., tumor weight day 12, read-out: % Inhibition of tumor growth
[3] = Mus musculus, Sarcoma-180, ip, 288 h, 50 mg/kg/day, tumor s.c., tumor weight day 12, read-out: % Inhibition of tumor growth
[4] = Mus musculus, Sarcoma-180, ip, 288 h, 100 mg/kg/day, tumor s.c., tumor weight day 12, read-out: % Inhibition of tumor growth
[5] = Mus musculus, Sarcoma-180, ip, 288 h, 40 mg/kg/day, tumor s.c., tumor weight day 12, read-out: % Inhibition of tumor growth
[6] = Mus musculus, Sarcoma-180, ip, 288 h, 80 mg/kg/day, tumor s.c., tumor weight day 12, read-out: % Inhibition of tumor growth

SMILES	IC50 (KB cells) [µg/mL]	Mortality in 12 days (Sarcoma 180; 12.5 mg/kg/day)	Mortality in 12 days (Sarcoma 180; 25 mg/kg/day)	inhibition in vivo at 12.5 mg/kg (Sarcoma 180; [1]) [%]	inhibition in vivo at 25 mg/kg (Sarcoma 180; [2]) [%]	Mortality in 12 days (Sarcoma 180; 50 mg/kg/day)	inhibition in vivo at 50 mg/kg (Sarcoma 180; [3]) [%]	Mortality in 12 days (Sarcoma 180; 100 mg/kg/day)	inhibition in vivo at 100 mg/kg (Sarcoma 180; [4]) [%]	further results
C[C@H](N)C(=O)NCC(=O)OC[C@H]1CN2C(=O)C[C@@H]2O1.Cl (mixture of isomers) [Example 41B, (3RS,5SR)-3-[N-(L-2-Aminopropanoyl)aminoacetyl]oxymethyl-4-oxa-1-azabicyclo[3.2.0]heptan-7-one hydrochloride]	0.295	0/6	0/6	43.9	62.8					
CC(C)[C@H](N)C(=O)NCC(=O)OC[C@H]1CN2C(=O)C[C@@H]2O1.Cl (mixture of isomers) [Example 42B, (3RS,5SR)-3-[N-(L-2-Amino-3-methylbutyryl)aminoacetyl]oxymethyl-4-oxa-1-azabicyclo[3.2.0]heptan-7-one hydrochloride]	0.388	0/6	0/6	49.9	69	0/6	85.8			
CC(C)[C@H](N)C(=O)NCC(=O)NC[C@@H]1CN2C(=O)C[C@H]2O1.Cl (mixture of isomers) [Example 45B, (3RS,5RS)-3-[N-(L-2-amino-3-methylbutyryl)aminoacetyl]aminomethyl-4-oxa-1-azabicyclo[3.2.0]heptan-7-one hydrochloride]	1.97		0/6		39.3	0/6	81.7			
C[C@H](N)C(=O)OC[C@H]1CN2C(=O)C[C@@H]2O1.Cl (mixture of isomers) [Example 48B, (3RS,5SR)-3-(L-2-Aminopropanoyl)oxymethyl-4-oxa-1-azabicyclo[3.2.0]heptan-7-one hydrochloride]	0.878	0/6	0/6	44.9	66.8	2/6	77.3			
C[C@@H](N)C(=O)OC[C@H]1CN2C(=O)C[C@@H]2O1.Cl (mixture of isomers) [Example 51B, (3RS,5SR)-3-(D-2-Aminopropanoyl)oxymethyl-4-oxa-1-azabicyclo[3.2.0]heptan-7-one hydrochloride]	0.867	0/6	0/6	40.9	50.6	0/6	82.4	5/6	93.8	
CC(C)[C@H](N)C(=O)OC[C@H]1CN2C(=O)C[C@@H]2O1.Cl (mixture of isomers) [Example 54B, (3RS,5SR)-3-(L-2-Amino-3-methylbutyryl)oxymethyl-4-oxa-1-azabicyclo[3.2.0]heptan-7-one hydrochloride]	1.9		0/6		28.5	0/6	53.8	0/6	84.3	
CC(C)[C@@H](N)C(=O)OC[C@H]1CN2C(=O)C[C@@H]2O1.Cl (mixture of isomers) [Example 60B, (3RS,5SR)-3-(D-2-Amino-3-methylbutyryl)oxymethyl-4-oxa-1-azabicyclo[3.2.0]heptan-7-one hydrochloride]	0.903					0/6	49.8	0/6	77.7	
N[C@@H](CC(=O)OC[C@H]1CN2C(=O)C[C@@H]2O1)C(=O)O (mixture of isomers) [Example 65B, (3RS,5SR)-3-(L-3-Amino-3-carboxypropanoyl)oxymethyl-4-oxa-1-azabicyclo[3.2.0]heptan-7-one]	0.451							0/6	55	
N[C@@H](CC(=O)O)C(=O)OC[C@H]1CN2C(=O)C[C@@H]2O1 (mixture of isomers) [Example 66B, (3RS,5SR)-3-(L-2-Amino-3-carboxypropanoyl)oxymethyl-4-oxa-1-azabicyclo[3.2.0]heptan-7-one]	0.204	0/6	0/6	53.2	62.9					Mortality in 12 days (Sarcoma 180; 6.3 mg/kg/day): 0/6; inhibition in vivo at 6.3 mg/kg (Sarcoma 180; Mus musculus, Sarcoma-180, ip, 288 h, 6.3 mg/kg/day, tumor s.c., tumor weight day 12, read-out: % Inhibition of tumor growth): 33.7%
N[C@H](CCC(=O)OC[C@H]1CN2C(=O)C[C@@H]2O1)C(=O)O (mixture of isomers) [Example 68B, (3RS,5SR)-3-(D-4-Amino-4-carboxybutyryl)oxymethyl-4-oxa-1-azabicyclo[3.2.0]heptan-7-one]	0.189	0/6	0/6	49.1	69.7	3/6	80.3			
CCCCCC(=O)NC[C@@H]1CN2C(=O)C[C@H]2O1 (racemic) [Example 4, (3RS,5RS)-3-(N-Hexanoylaminomethyl)-4-oxa-1-azabicyclo[3.2.0]heptan-7-one]	0.312 (≈ 1.3 µM)							0/6	49.4	
O=C(NC[C@@H]1CN2C(=O)C[C@H]2O1)C1CCCCC1 (racemic) [Example 6, (3RS,5RS)-3-(N-Cyclohexylcarbonylaminomethyl)-4-oxa-1-azabicyclo[3.2.0]heptan-7-one]	0.073 (≈ 0.289 µM)									Mortality in 12 days (Sarcoma 180; 20 mg/kg/day): 0/6; Mortality in 12 days (Sarcoma 180; 40 mg/kg/day): 0/6; Mortality in 12 days (Sarcoma 180; 80 mg/kg/day): 0/6; inhibition in vivo at 20 mg/kg (Sarcoma 180; Mus musculus, Sarcoma-180, ip, 288 h, 20 mg/kg/day, tumor s.c., tumor weight day 12, read-out: % Inhibition of tumor growth): 32.1%; inhibition in vivo at 40 mg/kg (Sarcoma 180; [5]): 35.7%; inhibition in vivo at 80 mg/kg (Sarcoma 180; [6]): 43.3%
O=C1C[C@H]2O[C@H](CNC(=O)C(F)(F)F)CN12 (racemic) [Example 7, (3RS,5RS)-3-[N-(Trifluoroacetyl)aminomethyl]-4-oxa-1-azabicyclo[3.2.0]heptan-7-one]	0.205 (≈ 0.861 µM)							2/6	39.8	
O=C(CCl)NC[C@@H]1CN2C(=O)C[C@H]2O1 (racemic) [Example 8, (3RS,5RS)-3-(N-Chloroacetylaminomethyl)-4-oxa-1-azabicyclo[3.2.0]heptan-7-one]	0.084 (≈ 0.384 µM)									Mortality in 12 days (Sarcoma 180; 8.8 mg/kg/day): 0/6; Mortality in 12 days (Sarcoma 180; 17.5 mg/kg/day): 0/6; Mortality in 12 days (Sarcoma 180; 35 mg/kg/day): 1/6; inhibition in vivo at 8.8 mg/kg (Sarcoma 180; Mus musculus, Sarcoma-180, ip, 288 h, 8.8 mg/kg/day, tumor s.c., tumor weight day 12, read-out: % Inhibition of tumor growth): 39%; inhibition in vivo at 17.5 mg/kg (Sarcoma 180; Mus musculus, Sarcoma-180, ip, 288 h, 17.5 mg/kg/day, tumor s.c., tumor weight day 12, read-out: % Inhibition of tumor growth): 51.3%; inhibition in vivo at 35 mg/kg (Sarcoma 180; Mus musculus, Sarcoma-180, ip, 288 h, 35 mg/kg/day, tumor s.c., tumor weight day 12, read-out: % Inhibition of tumor growth): 64%
Cl.NC[C@@H]1CN2C(=O)C[C@H]2O1 (racemic) [Example 22, (3RS,5RS)-3-aminomethyl-4-oxa-1-azabicyclo[3.2.0]heptan-7-one hydrochloride]	0.344									Mortality in 12 days (Sarcoma 180; 40 mg/kg/day): 0/6; Mortality in 12 days (Sarcoma 180; 80 mg/kg/day): 0/6; inhibition in vivo at 40 mg/kg (Sarcoma 180; [5]): 26.7%; inhibition in vivo at 80 mg/kg (Sarcoma 180; [6]): 40.3%
O=C(NC[C@@H]1CN2C(=O)C[C@H]2O1)c1ccccc1 (racemic) [Example 23, (3RS,5RS)-3-(N-Benzoylaminomethyl)-4-oxa-1-azabicyclo[3.2.0]heptan-7-one]	0.088 (≈ 0.357 µM)							0/6	27.8	

Reference: patent publication US5994342A, “3-(substituted methyl)-4-oxa-1-azabicyclo[3.2.0]heptan-7-one derivatives useful as antitumor agents” (priority 1994, dated 1999)
